Experimental data published in paper PMC11241437, “Structure-Based Analysis of Cefaclor Pharmacokinetic Diversity According to Human Peptide Transporter-1 Genetic Polymorphism” (International Journal of Molecular Sciences, 2024).

Assays:
PEPT1 = test system: PEPT1; set-up: method as in PMID 9950279; settings: Caco-2; cited from earlier work
clinical = settings: male, human, in vivo, po, 250 mg
Method: Cefaclor bioequivalence results in 24 healthy Korean men obtained from a previous study were reused for the analysis of cefaclor pharmacokinetics according to PEPT1 genetic polymorphisms in this study. Among the previous bioequivalence results, those for the test formulation were excluded, and only the clinical results for the reference drug, cefaclor 250 mg capsule (Eli Lilly and Company, Indianapolis, IN, USA; Lot number: L1692Y1) were used. […] Table S2 presents the demographic information of the subjects, including physiological and biochemical parameters. The determination of clinical biochemical parameter values was performed by serological analysis through a dry automated analyzer. The analytical instrument was a microside VITROS (Ortho Clinical Diagnostics, Raritan, NJ, USA) operated by reflectance spectrophotometry. Information on the selection and progress of clinical trial participants is presented in Supplementary Information S1, and information on clinical trial design and sampling is presented in Supplementary Information S2. The clinical trial protocol was thoroughly reviewed and officially approved (approval number: 112; 09.03.2004) by the Institutional Review Board of the Institute of Bioequivalence and Bridging Study (Gwangju, Republic of Korea). Information on the high-performance liquid chromatography-ultraviolet (HPLC-UV) method used to quantify cefaclor in plasma samples is briefly presented in Supplementary Information S3.
Genetic polymorphism information for all subjects participating in the clinical trial could be obtained using blank plasma samples derived from each subject. The genetic information targeted in this study was SLC15A1 exons 5 and 16 as the PEPT1 coding gene. SNPs in SLC15A1 exons 5 and 16 were analyzed through pyrosequencing and restriction fragment length polymorphism (RFLP) via polymerase chain reaction (PCR), respectively. The target SNPs in SLC15A1 exons 5 and 16 were c.381G>A and c.1287G>C, respectively, and the genetic polymorphism analysis methods for these were presented in Supplementary Information S4.
The results of the analysis of plasma concentration over time after single oral administration of cefaclor 250 mg capsule could be calculated as cefaclor pharmacokinetic parameter values through non-compartmental analysis (NCA). NCA was performed using Phoenix WinNonlin software (version 8.4, Certara Inc., Princeton, NJ, USA). The main calculated pharmacokinetic parameters are area under the curve in a plasma concentration-time graph (AUC), clearance (CL/F), peak plasma drug concentration after administration (Cmax), elimination half-life (T1/2), mean residence time (MRT), time to reach Cmax (Tmax), and volume of the distribution (V/F). Specific calculation methods for pharmacokinetic parameters are presented in Supplementary Information S5. The calculated pharmacokinetic parameter values were classified according to the genetic polymorphisms of SLC15A1 exons 5 and 16 and compared between genotype groups. Comparison of significant differences between the three genotype groups (SLC15A1 exon 5) was performed using one-way analysis of variance (ANOVA), and comparison of significant differences between two genotype groups (SLC15A1 exon 16) was performed using a two-tailed t test. All significance judgments in statistical tests were based on a p value of 0.05. Additionally, differences in pharmacokinetics between groups were confirmed through a graphic comparison of cefaclor plasma concentration profiles between genotypes classified according to genetic polymorphisms of SLC15A1 exons 5 and 16.
Supplementary Information S2
Clinical trial design and sampling
This bioequivalence study was performed as randomized, single-dose, open-label, crossover, and two-way studies (with a washout period of 7 days). Prior to the clinical trial, subjects had a heparin-locked (150 unit/mL) JELCO 22G angio-catheter (Smiths Medical, Minneapolis, […]

[1] = type: in vitro ADME; settings: human
Method: Supplementary Information S3
Determination of cefaclor plasma concentrations
Concentrations of unchanged cefaclor in plasma were determined by applying high performance liquid chromatography coupled with an ultraviolet (HPLC-UV), which has been established and validated in previous studies. The LC10 ADvp system (Shimadzu Inc., Kyoto, Japan) was used as an analysis device. Briefly describing the analysis method, plasma samples were pretreated through liquid-liquid extraction using 6% (v/v) trichloroacetic acid and then selectively separated on a Symmetry C18 column (5 μm, 4.6 × 150 mm; Waters Co., Milford, MA, USA) using water (mobile phase A) and methanol (mobile phase B) as mobile phases.
The composition ratio of mobile phases A and B was isocratically eluted at 88:12 (v/v), and the quantification of cefaclor was performed at a wavelength of 265 nm. Cephradine, which has a similar structure to cefaclor, was used as an internal standard (IS), and the retention times in the column for cefaclor and IS were 15 min and 23 min, respectively. The lower limit of quantification was 0.1 μg/mL, and the linear calibration curve was secured with a coefficient of determination of 0.99 or higher up to the concentration range of 10 μg/mL. The […]
calibration curve. […]

Structure (SMILES)	substrate interaction with PEPT1 (PEPT1)	also measured
N[C@@H](C(=O)N[C@@H]1C(=O)N2C(C(=O)O)=C(Cl)CS[C@H]12)c1ccccc1 [cefaclor]	interaction substrate with PEPT1	AUC (clinical; AUCall): 7590 ± 1520 ng·h/mL; AUC(0-inf) (clinical; AUCinf): 7740 ± 1530 ng·h/mL; Cmax (clinical; Cmax): 6510 ± 1900 ng/mL; MRT (clinical; MRT (mean residence time)): 75.6 ± 11.4 min; half-life (clinical; T1/2 (elimination half-life)): 36 ± 3.6 min; Tmax (clinical; Tmax): 49.2 ± 21 min
CC1=C(C(=O)O)N2C(=O)[C@@H](NC(=O)[C@H](N)c3ccc(O)cc3)[C@H]2SC1 [cefadroxil]	may have substrate interactions with PEPT1	
Cn1nnnc1SCC1=C(C(=O)O)N2C(=O)[C@@H](NC(=O)[C@H](O)c3ccccc3)[C@H]2SC1 [cefamandole]	may have substrate interactions with PEPT1	
C=CC1=C(C(=O)O)N2C(=O)[C@@H](NC(=O)/C(=N\OCC(=O)O)c3csc(N)n3)[C@H]2SC1 [cefixime]	may have substrate interactions with PEPT1	
CO/N=C(\C(=O)N[C@@H]1C(=O)N2C(C(=O)O)=C(COC(N)=O)CS[C@H]12)c1ccco1 [cefuroxime]	may have substrate interactions with PEPT1	
CC1=C(C(=O)O)N2C(=O)[C@@H](NC(=O)[C@H](N)c3ccccc3)[C@H]2SC1 [cephalexin]	may have substrate interactions with PEPT1	
CC(=O)OCC1=C(C(=O)O)N2C(=O)[C@@H](NC(=O)Cc3cccs3)[C@H]2SC1 [cephalotin]	may have substrate interactions with PEPT1	
CC1=C(C(=O)O)N2C(=O)[C@@H](NC(=O)[C@H](N)C3=CCC=CC3)[C@H]2SC1 [cephradine]	may have substrate interactions with PEPT1	stabilities in plasma samples [1]: 85-115%
